Reference: patent US8597904B2, “Pharmaceutical compositions for the treatment of conditions responsive to proteasome inhibition” (priority 2007, dated 2013)

Assays:
[1] = molecular target: T1, human erythrocyte 20S proteasomes, chymotrypsin-like activity (Homo sapiens, UniProt P28074); assay type: biochemical; settings: for inhibition of chymotrypsin-like activity: 37° C., 100 μM Suc-LLVY-AMC
T1 construct: which contains human erythrocyte 20S proteasomes; purchased BIOMOL International AK-740; host or cells: human erythrocytes
Method: A 100 μl reaction volume contained 2 μg/ml 20S proteasome, 100 μM substrate, and the desired concentrations of syringolin A in dilution buffer (50 mM Tris-HCl, pH 7.5, 25 mM KCl, 10 mM NaCl, 1 mM MgCl2). Epoximicin and MG132 (BIOMOL® International) were used as test inhibitors. The release of free AMC (7-amino-4-methylcoumarin) at 37° C. was monitored with an MWGt Sirius HT fluorescence microplate reader (BIO-TEK® Instruments) equipped with a 360 nm excitation and a 460 nm emission filter. Proteolytic activities were measured as the increase in relative fluorescence units (RFU) over time (FIG. 7A-C). […] The initial velocities (vi) were determined from the time derivative of these curves and plotted versus the corresponding inhibitor concentration ([I]). […] Using SigmaPlot, the data were fitted to the hyperbolic equation vi=c+[v0/(Ki′+[I])], where v0 is the velocity of the control. […] The rate of covalent inhibition (kassociation), which equals kobs/[I] was calculated over the range of inhibitor concentrations given in parentheses in FIG. 7D. Values in FIG. 7D represent means±standard deviation.
The fluorogenic substrates Suc-LLVY-AMC, Boc-LRR-AMC, and Z-LLE-AMC (BIOMOL® International) were used to monitor chymotrypsin-like, trypsin-like, and caspase-like activities, respectively. […] The release of free AMC (7-amino-4-methylcoumarin) at 37° C. was monitored with an MWGt Sirius HT fluorescence microplate reader (BIO-TEK® Instruments) equipped with a 360 nm excitation and a 460 nm emission filter.

[2] = molecular target: T2, human erythrocyte 20S proteasomes, trypsin-like activity (Homo sapiens, UniProt Q99436); assay: 20S Proteasome Assay Kit, Boc-LRR-AMC substrate; assay type: biochemical; settings: 37° C., 100 μM Boc-LRR-AMC
T2 construct: which contains human erythrocyte 20S proteasomes; purchased BIOMOL International AK-740; host or cells: human erythrocytes
Method: (§1) The eukaryotic 20S proteasome contains three catalytic subunits (β1, β2, and (β5) conferring caspase-like, trypsin-like and chymotrypsin-like proteolytic activities, respectively (Borissenko and Groll. 2007. Chem. Rev. 107:687-717, which is incorporated herein by reference in its entirety). Syringolin A was tested as a proteasome inhibitor using the 20S Proteasome Assay Kit for Drug Discovery AK-740 (BIOMOL® International, Plymouth Meeting, PA, USA), which contains human erythrocyte 20S proteasomes, in a 96-well microtiter plate. The fluorogenic substrates Suc-LLVY-AMC, Boc-LRR-AMC, and Z-LLE-AMC (BIOMOL® International) were used to monitor chymotrypsin-like, trypsin-like, and caspase-like activities, respectively. […] The release of free AMC (7-amino-4-methylcoumarin) at 37° C. was monitored with an MWGt Sirius HT fluorescence microplate reader (BIO-TEK® Instruments) equipped with a 360 nm excitation and a 460 nm emission filter. Proteolytic activities were measured as the increase in relative fluorescence units (RFU) over time (FIG. 7A-C). […] The initial velocities (vi) were determined from the time derivative of these curves and plotted versus the corresponding inhibitor concentration ([I]). […] The rate of covalent inhibition (kassociation), which equals kobs/[I] was calculated over the range of inhibitor concentrations given in parentheses in FIG. 7D. […]

[3] = molecular target: T3, human erythrocyte 20S proteasomes, caspase-like activity (Homo sapiens, UniProt P28072); assay: 20S Proteasome Assay Kit, Z-LLE-AMC substrate; assay type: biochemical
T3 construct: which contains human erythrocyte 20S proteasomes; purchased BIOMOL International AK-740; host or cells: human erythrocytes
Method: as §1

[4] = test system: TH-MYCN transgenic mouse; assay: chemoprevention in TH-MYCN mouse model of human neuroblastoma; assay type: in vivo; settings: homozygous mice, treatment from week 4 or 5, vs untreated mice
Excerpt: The TH-MYCN transgenic mouse is a well-established neuroblastoma mouse model (Hansfored, et al. 2004. PNAS 101(34):12664-12669; Weiss, et al. 2007. Cancer Res 67(19):9435-9442; Weiss, et al. 2000. Cancer Res 6″2483-2487, each of which is incorporated herein by reference in its entirety). The tumors are caused by targeted expression of MYCN to the neural crest under the control of the rat tyrosine hydroxylase promoter, where the mice develop a tumor phenotype that closely resembles the human disease. The tumors in this strain of mouse generally develop in the abdominal and thoracic areas. TH-MYCN breeder pairs are supplied as hemizygote (129×1/SvJ-Tg(TH-MYCN)41Waw) and a wild type mate (129×1/SvJ).
Treatment regimen is similar to that described in Example 16. Test compounds are administered to homozygous mice at a dose that is developed based upon the results of the initial dose and toxicity study (Example 15). Two to four doses per compound are administered by i.p. and/or i.v. methods into homozygous mice at week 4 or 5 (in advance of tumor development, which occurs closer to week 7). Vehicle is delivered as a control. Further doses are administered every 72 hours thereafter for 3 to 6 weeks. Between eight to twelve mice are tested in the study for administration of each compound. […] At the conclusion of the study, the mice are sacrificed and tumor size and number of tumors are assessed.

SMILES	inhibition of chymotrypsin-like activity [1]	inhibition of trypsin-like activity [2]	inhibition of caspase-like activity ([3]; concentrations tested up to 20 μM)	tumor formation [4]	mode of proteasome inhibition (reaction velocity over time) ([1]; FIG. 7A)	inhibition of caspase-like activity ([3]; 37° C., 100 μM Z-LLE-AMC)
CCCCCCC/C=C/C=C/C(=O)N[C@H](C(=O)N[C@H]1C[C@@H](O)CCNC(=O)/C=C/[C@H](C)NC1=O)[C@@H](C)O [glidobactin A]	blocked the chymotrypsin-like activity irreversibly at low concentrations	less sensitive	not inhibited	fewer or no tumors	–	–
CC(C)[C@H](NC(=O)N[C@H](C(=O)N[C@H]1/C=C/CCNC(=O)/C=C/[C@H](C(C)C)NC1=O)C(C)C)C(=O)O [syringolin A]	inhibited	inhibited	–	fewer or no tumors	irreversible proteasome inhibitor	inhibited
